In US20100144779A1, “Marine Alkalod Makaluvamines and Derivatives Thereof” (THE UAB RESEARCH FOUNDATION, priority 2007, published 2010):

Assays:
Assay in all cases: NCI60 cell line screen (SRB)
Assay type in all cases: cell-based, human
[1] = tested on: SF-539; settings: SF-539, CNS Cancer, 48 h
Protocol: (§1) This panel implements the NCI60 cell line screen, including leukemia, non-small cell lung cancer, colon cancer, central nervous system cancer, melanoma, ovarian cancer, renal cancer, prostate cancer and breast cancer. The cell lines tested are specified in Table 3.
(§2) Generally, the human tumor cell lines of the cancer screening panel are grown in RPMI 1640 medium containing 5% fetal bovine serum and 2 mM L-glutamine. For a typical screening experiment, cells are inoculated into 96 well microtiter plates in 100 μL at plating densities ranging from 5,000 to 40,000 cells/well depending on the doubling time of individual cell lines. After cell inoculation, the microtiter plates are incubated at 37° C., 5% CO2, 95% air and 100% relative humidity for 24 h prior to addition of experimental drugs. After 24 h, two plates of each cell line are fixed in situ with TCA, to represent a measurement of the cell population for each cell line at the time of drug addition (Tz). Experimental drugs are solubilized in dimethyl sulfoxide at 400-fold the desired final maximum test concentration and stored frozen prior to use. At the time of drug addition, an aliquot of frozen concentrate is thawed and diluted to twice the desired final maximum test concentration with complete medium containing 50 μg/ml gentamicin. Additional four, 10-fold or ½ log serial dilutions are made to provide a total of five drug concentrations plus control. Aliquots of 100 μl of these different drug dilutions are added to the appropriate microtiter wells already containing 100 μl of medium, resulting in the required final drug concentrations.
(§3) Following drug addition, the plates are incubated for an additional 48 h at 37° C., 5% CO2, 95% air, and 100% relative humidity. For adherent cells, the assay is terminated by the addition of cold TCA. Cells are fixed in situ by the gentle addition of 50 μl of cold 50% (w/v) TCA (final concentration, 10% TCA) and incubated for 60 minutes at 4° C. The supernatant is discarded, and the plates are washed five times with tap water and air dried. Sulforhodamine B (SRB) solution (100 μl) at 0.4% (w/v) in 1% acetic acid is added to each well, and plates are incubated for 10 minutes at room temperature. After staining, unbound dye is removed by washing five times with 1% acetic acid and the plates are air dried. Bound stain is subsequently solubilized with 10 mM trizma base, and the absorbance is read on an automated plate reader at a wavelength of 515 nm. For suspension cells, the methodology is the same except that the assay is terminated by fixing settled cells at the bottom of the wells by gently adding 50 μl of 80% TCA (final concentration, 16% TCA). Using the seven absorbance measurements (time zero, Tz, control growth, (control), and test growth in the presence of drug at the five concentration levels (Ti)), the percentage growth is calculated at each of the drug concentrations levels. Percentage growth inhibition is calculated as:
(§4) [(Ti−Tz)/(C−Tz)]×100 for concentrations for which Ti>/=Tz
(§5) [(Ti−Tz)/Tz]×100 for concentrations for which Ti<Tz.

[2] = tested on: 786-0; settings: 786-0, Renal Cancer, 48 h
Protocol: as §1, §2, §3, §4, §5

[3] = tested on: HCT-116; settings: HCT-116, Colon Cancer, 48 h
Protocol: as §1, §2, §3, §4, §5

[4] = tested on: OVCAR5; settings: OVCAR5, Ovarian Cancer, 48 h
Protocol: as §1, §2, §3, §4, §5

[5] = tested on: M14; settings: M14, Melanoma, 48 h
Protocol: as §1, §2, §3, §4, §5

[6] = tested on: U251; settings: U251, CNS Cancer, 48 h
Protocol: as §1, §2, §3, §4, §5

[7] = tested on: HCC-2998; settings: HCC-2998, Colon Cancer, 48 h
Protocol: as §1, §2, §3, §4, §5

[8] = tested on: COLO 205; settings: COLO 205, Colon Cancer, 48 h
Protocol: as §1, §2, §3, §4, §5

[9] = tested on: HS 578T; settings: Breast Cancer, 48 h
Protocol: as §1, §2, §3, §4, §5

[10] = tested on: KM12; settings: KM12, Colon Cancer, 48 h
Protocol: as §1, §2, §3, §4, §5

[11] = tested on: IGROV1; settings: IGROV1, Ovarian Cancer, 48 h
Protocol: as §1, §2, §3, §4, §5

[12] = tested on: HT-29; settings: HT-29, Colon Cancer, 48 h
Protocol: as §1, §2, §3, §4, §5

[13] = tested on: SK-OV-3; settings: SK-OV-3, Ovarian Cancer, 48 h
Protocol: as §1, §2, §3, §4, §5

[14] = tested on: NCI-H226; settings: NCI-H226, Non-Small Cell Lung Cancer, 48 h
Protocol: as §1, §2, §3, §4, §5

[15] = tested on: NCI-H460; settings: NCI-H460, Non-Small Cell Lung Cancer, 48 h
Protocol: as §1, §2, §3, §4, §5

[16] = tested on: RPMO-8226; settings: RPMO-8226, Leukemia, 48 h
Protocol: as §1, §2, §3, §4, §5

[17] = tested on: SNB-75; settings: SNB-75, CNS Cancer, 48 h
Protocol: as §1, §2, §3, §4, §5

[18] = tested on: HOP-62; settings: HOP-62, Non-Small Cell Lung Cancer, 48 h
Protocol: as §1, §2, §3, §4, §5

[19] = tested on: SF-268; settings: SF-268, CNS Cancer, 48 h
Protocol: as §1, §2, §3, §4, §5

[20] = tested on: HCT-15; settings: HCT-15, Colon Cancer, 48 h
Protocol: as §1, §2, §3, §4, §5

[21] = tested on: HL-60; settings: HL-60, Leukemia, 48 h
Protocol: as §1, §2, §3, §4, §5

[22] = tested on: A498; settings: A498, Renal Cancer, 48 h
Protocol: as §1, §2, §3, §4, §5

[23] = tested on: MDA-MB-231/ATCC; settings: Breast Cancer, 48 h
Protocol: as §1, §2, §3, §4, §5

[24] = tested on: CAKI-1; settings: CAKI-1, Renal Cancer, 48 h
Protocol: as §1, §2, §3, §4, §5

[25] = tested on: NCI-H23; settings: NCI-H23, Non-Small Cell Lung Cancer, 48 h
Protocol: as §1, §2, §3, §4, §5

Compound: O=C(O)C(F)(F)F.O=C1C(NCc2ccc(F)cc2)=CC2=NCCc3c[nH]c1c32 [Compound 28]
- GI50 ([1]; Homo sapiens): 1.74 µM
- GI50 ([2]; Homo sapiens): 3.45 µM
- GI50 ([3]; Homo sapiens): 0.715 µM
- GI50 ([4]; Homo sapiens, OVCAR-5): 2.37 µM
- GI50 ([5]; Homo sapiens): 1.44 µM
- GI50 ([6]; Homo sapiens, U-251): 1.99 µM
- GI50 ([7]; Homo sapiens): 2.7 µM
- GI50 ([8]; Homo sapiens): 0.365 µM
- GI50 ([9]; Homo sapiens): 44 µM
- GI50 ([10]; Homo sapiens): 2.02 µM
- GI50 ([11]; Homo sapiens, IGROV-1): 1.43 µM
- GI50 ([12]; Homo sapiens): 0.596 µM
- GI50 ([13]; Homo sapiens): 3.15 µM
- GI50 ([14]; Homo sapiens): 2.34 µM
- GI50 ([15]; Homo sapiens): 0.816 µM
- GI50 ([16]; Homo sapiens): 0.559 µM
- GI50 ([17]; Homo sapiens): 5.2 µM
- GI50 ([18]; Homo sapiens): 3.79 µM
- GI50 ([19]; Homo sapiens): 1.66 µM
- GI50 ([20]; Homo sapiens): 1.48 µM
- GI50 ([21]; Homo sapiens): 1.53 µM
- GI50 ([22]; Homo sapiens): 3.11 µM
- GI50 ([23]; Homo sapiens): 0.725 µM
- GI50 ([24]; Homo sapiens): 0.329 µM
- GI50 ([25]; Homo sapiens): 0.521 µM

Compound: CNC1=CC2=NCCc3c[nH]c(c32)C1=O [Compound 4a]
- GI50 [1]: 2.39 µM
- GI50 [2]: 10.5 µM
- GI50 [3]: 2.94 µM
- GI50 [4]: 17.3 µM
- GI50 [5]: 2.57 µM
- GI50 [6]: 4.2 µM
- GI50 [7]: 4.91 µM
- GI50 [8]: 1.75 µM
- GI50 [9]: 10.2 µM
- GI50 [10]: 3.83 µM
- GI50 [11]: 2.9 µM
- GI50 [12]: 2.54 µM
- GI50 [13]: 18.7 µM
- GI50 [14]: 11.1 µM
- GI50 [15]: 2.16 µM
- GI50 [16]: 5.99 µM
- GI50 [17]: 1.38 µM
- GI50 [18]: 1.28 µM
- GI50 [19]: 2.09 µM
- GI50 [20]: 5.09 µM
- GI50 [21]: 2.54 µM
- GI50 [22]: 20.7 µM
- GI50 [23]: 3.13 µM
- GI50 [24]: 1.95 µM
- GI50 [25]: 2.46 µM

Compound: O=C1C(NCc2ccccc2)=CC2=NCCc3c[nH]c1c32 [Compound 4c]
- GI50 [1]: 1.91 µM
- GI50 [2]: 3.22 µM
- GI50 [3]: 0.306 µM
- GI50 [4]: 2.67 µM
- GI50 [5]: 1.28 µM
- GI50 [6]: 2.66 µM
- GI50 [7]: 2.61 µM
- GI50 [8]: 0.378 µM
- GI50 [9]: 5.2 µM
- GI50 [10]: 2.06 µM
- GI50 [11]: 0.793 µM
- GI50 [12]: 0.488 µM
- GI50 [13]: 7.01 µM
- GI50 [14]: 5.45 µM
- GI50 [15]: 1.51 µM
- GI50 [16]: 1.36 µM
- GI50 [17]: 1.65 µM
- GI50 [18]: 3.7 µM
- GI50 [19]: 2.83 µM
- GI50 [20]: 1.39 µM
- GI50 [21]: 0.325 µM
- GI50 [22]: 16.5 µM
- GI50 [23]: 0.439 µM
- GI50 [24]: 0.298 µM
- GI50 [25]: 1.47 µM

Compound: O=C(O)C(F)(F)F.O=C1C(NCCc2ccc3c(c2)OCO3)=CC2=NCCc3c[nH]c1c32 [Compound 6]
- GI50 ([1]; Homo sapiens): 2.21 µM
- GI50 ([2]; Homo sapiens): 3.98 µM
- GI50 ([3]; Homo sapiens): 2.41 µM
- GI50 ([4]; Homo sapiens, OVCAR-5): 2.72 µM
- GI50 ([5]; Homo sapiens): 1.43 µM
- GI50 ([6]; Homo sapiens, U-251): 3.05 µM
- GI50 ([7]; Homo sapiens): 1.56 µM
- GI50 ([8]; Homo sapiens): 1.02 µM
- GI50 ([9]; Homo sapiens): 2.86 µM
- GI50 ([10]; Homo sapiens): 2.29 µM
- GI50 ([11]; Homo sapiens, IGROV-1): 2.52 µM
- GI50 ([12]; Homo sapiens): 2.07 µM
- GI50 ([13]; Homo sapiens): 9.7 µM
- GI50 ([14]; Homo sapiens): 4.38 µM
- GI50 ([15]; Homo sapiens): 1.01 µM
- GI50 ([17]; Homo sapiens): 3.49 µM
- GI50 ([18]; Homo sapiens): 2.5 µM
- GI50 ([19]; Homo sapiens): 3.66 µM
- GI50 ([20]; Homo sapiens): 1.86 µM
- GI50 ([21]; Homo sapiens): 1.92 µM
- GI50 ([22]; Homo sapiens): 6.03 µM
- GI50 ([23]; Homo sapiens): 2.32 µM
- GI50 ([24]; Homo sapiens): 1.77 µM
- GI50 ([25]; Homo sapiens): 1.69 µM

Compound: COc1ccc(CCNC2=CC3=NCCc4c[nH]c(c43)C2=O)cc1OC.O=C(O)C(F)(F)F [Compound 20]
- GI50 ([1]; Homo sapiens): 3.28 µM
- GI50 ([2]; Homo sapiens): 5.43 µM
- GI50 ([3]; Homo sapiens): 2.4 µM
- GI50 ([4]; Homo sapiens, OVCAR-5): 5.14 µM
- GI50 ([5]; Homo sapiens): 2.26 µM
- GI50 ([6]; Homo sapiens, U-251): 3.44 µM
- GI50 ([7]; Homo sapiens): 2.35 µM
- GI50 ([8]; Homo sapiens): 1.39 µM
- GI50 ([9]; Homo sapiens): 5.04 µM
- GI50 ([10]; Homo sapiens): 2.23 µM
- GI50 ([11]; Homo sapiens, IGROV-1): 4.24 µM
- GI50 ([12]; Homo sapiens): 2.54 µM
- GI50 ([13]; Homo sapiens): 14.6 µM
- GI50 ([14]; Homo sapiens): 1.06 µM
- GI50 ([15]; Homo sapiens): 1.42 µM
- GI50 ([17]; Homo sapiens): 5.22 µM
- GI50 ([18]; Homo sapiens): 5.17 µM
- GI50 ([19]; Homo sapiens): < 0.01 µM
- GI50 ([20]; Homo sapiens): 2.65 µM
- GI50 ([21]; Homo sapiens): 3.14 µM
- GI50 ([22]; Homo sapiens): 7.24 µM
- GI50 ([23]; Homo sapiens): 3.21 µM
- GI50 ([24]; Homo sapiens): 2.67 µM
- GI50 ([25]; Homo sapiens): 2 µM
